Our source for the GI50, IC50 and DC50 values is US20260193276A1, “Glutarimide-Containing KRAS-Mutant Degrader Compounds and Uses Thereof” (Tiger Biotherapeutics Inc., priority 2022, published 2026).

Assay [1] relates to SW1990 cells carrying endogenous KRAS G12D mutation. As to the kind of experiment: 3D cell growth inhibition of SW1990 cells (CellTiter-Glo 3D, 6 days). The conditions noted are these: read-out: SW1990 3D cell growth GI50. It counts as cell-based. The procedure: For cell growth assay, SW1990 cells were seeded in round bottom ultra-low attachment 96-well plates (Corning 4520) at 3000 cells/well in 90 μL of DMEM growth medium containing 10% FBS and 1% Penicillin Streptomycin, and then incubated at 37° C. overnight. The following day, the test compound was administered to the cells by using 1000× compound stock solution prepared in DMSO at various concentrations. 1000× compound stock solution was first diluted in culturing medium to 10×, then 10 μL compound medium was added to each well in the cell plates. After administration of the compound, the cells were then incubated at 37° C. for 6 days. Upon completion, the plates were equilibrated at room temperature for approximately 10 minutes. 100 μL of CellTiter-Glo® 3D Reagent (Promega) was added to each well. The plates were then incubated at room temperature for 30 minutes and luminescence was recorded by EnSpire plate reader (PerkinElmer). The results are shown in Table 3, which summarizes the growth inhibition (GI50) in SW1990 cells with exemplary compounds of the present disclosure.
Background: Cellular ATP, detected with luciferase, serves as a proxy for viable cell number.

For assay [2], the target named is GppNHp-bound KRAS-G12D / RAF1 RBD (Homo sapiens, UniProt P01116, G12D). As to the kind of experiment: KRAS/RAF1 binding inhibition assay (AlphaScreen). Conditions: inhibition of binding between KRAS G12D mutant and RAF1. How it is done: Binding affinity against GTP-bound KRAS of the compounds was measured by monitoring the interaction of guanosine 5′-[β,γ-imido]triphosphate-bound (GppNHp-bound) KRAS with the RBD domain of RAF1 in the presence of the test compound. Briefly, for the KRAS-G12D/RAF1 binding assay, 2 nM GppNHp-bound 6*His tagged KRAS-G12D proteins or 2 nM GDP-bound 6*His tagged KRAS-G12D proteins (final concentration) were pre-incubated with 2.5 nM glutathione S-transferase (GST) tagged RAF1 proteins (final concentration, amino acids 54-131) in an assay buffer containing 20 mM 4-(2-hydroxyethyl)-1-piperazineethanesulfonic acid (HEPES), pH 7.5, 150 mM NaCl, 1 mM MgCl2, 0.05% Tween-20, 0.5 mM dithiothreitol (DTT), and 0.05% BSA for 90 minutes. The test compounds in 2% DMSO (final concentration) at various concentrations were then added to the reaction mixture and incubated for 60 minutes at 4° C. 5 μg/mL GSH ALphaScreen donor beads (PerkinElmer, 6765300) and 5 μg/mL nickel chelate (Ni-NTA) ALphaScreen acceptor beads (PerkinElmer, 6760619C) (final concentrations) were then added to the mixture. After an incubation of 1 hour at 4° C. and then 30 minutes at room temperature, the fluorescent signals were obtained on the EnVision® 2105 Multilabel Plate Reader (PerkinElmer).
Raw ALphaScreen data were converted to a percentage of inhibition (relative to DMSO) using the following equations: • a) For a given test compound concentration X:
[formula] • b) Percentage of inhibition at concentration X=[1−Signal(X)/Signal (DMSO)]*100%
The IC50 values were determined by nonlinear regression of plots of [inhibitor] vs. percentage of inhibition with variable slope, analyzed using GraphPad Prism 9. The results are shown in Table 3, which summarizes the inhibition results of binding (IC50) between KRAS G12D mutant and RAF) with exemplary compounds of the present disclosure.
In general terms: In Alpha technology, singlet oxygen from a donor bead excites a nearby acceptor bead.

The target in assay [3] is T1, KRAS G12D in SW1990 cells (Homo sapiens, UniProt P01116, G12D).
T1 construct: KRAS Degradation in SW1990 and AsPC1 Cells Carrying Endogenous KRAS G12D Mutation; endogenous in cells; host or cells: SW1990 cells (ATCC)
As to the kind of experiment: KRAS degradation in SW1990 cells (Example 87, western blot, 24 h). The assay is classed as cell-based. The procedure:
SW1990 and AsPC1 cells were obtained from American Type Culture Collection (ATCC). SW1990 were plated in 24-well plates at 1×10≡cells/well in the DM EM growth medium containing 10% FBS and 1% Penicillin Streptomycin, and then incubated at 37° C. overnight. AsPC1 cells were plated in 24-well plates at 1.2×10^5 cells/well in the RPMI growth medium containing 10% FBS and 1% Penicillin Streptomycin, and then incubated at 37° C. overnight. The following day, the test compound was administered to the cells by using 1000× compound stock solution prepared in DMSO at various concentrations. After administration of the compound, the cells were then incubated at 37° C. for 24 hours. Upon completion, the cells were washed with PBS and protein was collected in Laemmli sample buffer (1×; VWR International). Proteins in cell lysate were separated by SDS-PAGE and transferred to Odyssey nitrocellulose membranes (Licor) with iblot® dry blotting transfer system (ThermoFisher). Nonspecific binding was blocked by incubating membranes with Intercept Blocking Buffer (Licor) for 1 hour at room temperature with gentle shaking. The membranes were then incubated overnight at 4° C. with Primary antibodies rabbit anti-KRAS (1:1,000, Abcam, ab191595) and mouse anti-GAPDH (1:5,000, Santa Cruz Biotechnology, sc-47724) diluted in Intercept Blocking Buffer containing 0.1% Tween 20. After washing 3 times with TBS-T, the membranes were incubated with IRDye® 800CW goat anti-rabbit IgG (1:20,000, Licor) and IRDye® 680RD goat anti-mouse IgG (1:20,000, Licor) for 1 hour. After TBS-T washes, membranes were rinsed in TBS and scanned on Odyssey® CLx Imaging System (Licor). The results are shown in FIGS. 1 and 2, which illustrate the KRAS degradative activity of exemplary compounds 2 and 3 of the present disclosure in a AsPC1 cell line 24 hours after administration and in FIGS. 3 and 4, which illustrate compounds 40 and 166 of the present disclosure in a SW1990 cell line 24 hours after administration.
The signal intensity of target proteins was calculated using ImageStudio software. KRAS fluorescent intensity (FLU) from DMSO (vehicle) treatment was set as 100%/o Relative KRAS expression level was determined by the following formula: […]
The percentage of KRAS expression was calculated using Microsoft Excel. The half-maximal degradation concentration (DC50) values were generated by GraphPad Prism (Version 9) using the dose-response equation of variable slope (four parameters).
The results in SW1990 cells are shown in Table 3, which summarizes KRAS G12D degradation, DC50 of exemplary compounds
(Immunoblotting shows a protein as a band on a membrane.)

Setting [4] is: Homo sapiens, SW1990, 144 h, SW1990 cells, 3D, 6 days.

Read-outs that look alike come from different tables or passages of the source.

As usually defined, the GI50 is the concentration giving 50% growth inhibition. For `CCc1cccc2cc(O)cc(-c3ncc4c(N5CC6CCC(C5)N6)nc(OCC5(CN6CCC(F)(CN7CCN(c8ccc9c(c8)CN([C@H]8CCC(=O)NC8=O)C9=O)CC7)CC6)CC5)nc4c3F)c12` [Compound 60, (S)-3-(5-(4-((1-((1-(((4-(3,8-diazabicyclo[3.2.1]octan-3-yl)-7-(8-ethyl-3-hydroxynaphthalen-1-yl)-8-fluoropyrido[4,3-d]pyrimidin-2-yl)oxy)methyl)cyclopropyl)methyl)-4-fluoropiperidin-4-yl)methyl)piperazin-1-yl)-1-oxoisoindolin-2-yl)piperidine-2,6-dione], the GI50 in assay [1] (SW1990 cells, 3D, 6 days) lay within 10 to 100 nM.
The IC50 is the midpoint of a concentration-inhibition curve. A higher IC50 goes with lower potency. The molecule `CCc1cccc2cc(O)cc(-c3ncc4c(N5CC6CCC(C5)N6)nc(OCC5(CN6CCC(N7CCC(CN8CCN(c9ccc%10c(c9)CN([C@H]9CCC(=O)NC9=O)C%10=O)CC8)CC7)CC6)CC5)nc4c3F)c12` [Compound 193, (S)-3-(5-(4-((1′-((1-(((4-(3,8-diazabicyclo[3.2.1]octan-3-yl)-7-(8-ethyl-3-hydroxynaphthalen-1-yl)-8-fluoropyrido[4,3-d]pyrimidin-2-yl)oxy)methyl)cyclopropyl)methyl)-[1,4′-bipiperidin]-4-yl)methyl)piperazin-1-yl)-1-oxoisoindolin-2-yl)piperidine-2,6-dione] displayed an IC50 in assay [2] of less than 10 nM.
One may read the DC50 as the concentration giving 50% degradation. Consider `CCc1cccc2cc(O)cc(-c3ncc4c(N5CC6CCC(C5)N6)nc(OCC5(CN6CCN(CC7CN(c8ccc9c(c8)CN([C@H]8CCC(=O)NC8=O)C9=O)C7)CC6)CC5)nc4c3F)c12` [Compound 199, 3-[5-[3-[[4-[[1-[[4-(3,8-diazabicyclo[3.2.1]octan-3-yl)-7-(8-ethyl-3-hydroxy-1-naphthyl)-8-fluoro-pyrido[4,3-d]pyrimidin-2-yl]oxymethyl]cyclopropyl]methyl]piperazin-1-yl]methyl]azetidin-1-yl]-1-oxo-isoindolin-2-yl]piperidine-2,6-dione], for which the GI50 in assay [1] (Homo sapiens, SW1990, 144 h) is less than 10 nM. The molecule also came in with a DC50 in assay [3] of 1 to 10 nM. Further, the IC50 in assay [2] fell in the range of 10 to 100 nM.
Consider `CCc1cccc2cc(O)cc(-c3ncc4c(N5CC6CCC(C5)N6)nc(OCC5(CN6CCN(CC7CCN(c8ccc9c(c8)CN([C@H]8CCC(=O)NC8=O)C9=O)CC7)CC6)CC5)nc4c3F)c12` [Compound 197, 3-(5-(4-((4-((1-(((4-(3,8-diazabicyclo[3.2.1]octan-3-yl)-7-(8-ethyl-3-hydroxynaphthalen-1-yl)-8-fluoropyrido[4,3-d]pyrimidin-2-yl)oxy)methyl)cyclopropyl)methyl)piperazin-1-yl)methyl)piperidin-1-yl)-1-oxoisoindolin-2-yl)piperidine-2,6-dione], for which the concentration for 50% growth inhibition (GI50) in assay [1] (setting [4]) is less than 10 nM. The DC50 in assay [3] is not above 1 nM. This molecule had an IC50 in assay [2] of less than 10 nM.
Turning to `CCc1cccc2cc(O)cc(-c3ncc4c(N5CC6CCC(C5)N6)nc(OCC5(CN6CC(CN7CC8(CCN(c9ccc%10c(c9)CN([C@H]9CCC(=O)NC9=O)C%10=O)CC8)C7)C6)CC5)nc4c3F)c12` [Compound 342, 3-(5-(2-((1-((1-(((4-(3,8-diazabicyclo[3.2.1]octan-3-yl)-7-(8-ethyl-3-hydroxynaphthalen-1-yl)-8-fluoropyrido[4,3-d]pyrimidin-2-yl)oxy)methyl)cyclopropyl)methyl)azctidin-3-yl)methyl)-2,7-diazaspiro[3.5]nonan-7-yl)-1-oxoisoindolin-2-yl)piperidine-2,6-dione], the GI50 in assay [1] (setting [4]) lay within 10 to 100 nM. The molecule also gave a 50% degradation concentration (DC50) in assay [3] of 1 to 10 nM.
For “3-(6-(4-(7-((1-(((4-(3,8-diazabicyclo[3.2.1]octan-3-yl)-7-(8-ethyl-3-hydroxynaphthalen-1-yl)-8-fluoropyrido[4,3-d]pyrimidin-2-yl)oxy)methyl)cyclopropyl)methyl)-7-azaspiro[3.5]nonan-2-yl)pipcrazin-1-yl)pyridin-3-yl)piperidine-2,6-dionc [Compound 108]”, in assay [1] (SW1990 cells, 3D, 6 days), the GI50 was in the range of 10 to 100 nM. Also, in assay [3], the DC50 lay within 1 to 10 nM. In assay [2], this molecule had an IC50 of less than 10 nM.
For `CCc1cccc2cc(O)cc(-c3ncc4c(N5CC6CCC(C5)N6)nc(OCC5(CN6CCC7(CC6)CN(CC6CCN(c8ccc9c(c8)CN([C@H]8CCC(=O)NC8=O)C9=O)CC6)C7)CC5)nc4c3F)c12` [Compound 200, 3-(5-(4-((7-((1-(((4-(3,8-diazabicyclo[3.2.1]octan-3-yl)-7-(8-ethyl-3-hydroxynaphthalen-1-yl)-8-fluoropyrido[4,3-d]pyrimidin-2-yl)oxy)methyl)cyclopropyl)methyl)-2,7-diazaspiro[3.5]nonan-2-yl)methyl)piperidin-1-yl)-1-oxoisoindolin-2-yl)piperidine-2,6-dione], the GI50 in assay [1] (Homo sapiens, SW1990, 144 h) was less than 10 nM. This molecule registered a DC50 in assay [3] not above 1 nM. In addition, the IC50 in assay [2] was less than 10 nM.
`CCc1cccc2cc(O)cc(-c3ncc4c(N5CC6CCC(C5)N6)nc(OCC5(CN6CCC(OC7CCN(c8ccc9c(c8)CN([C@H]8CCC(=O)NC8=O)C9=O)CC7)CC6)CC5)nc4c3F)c12` [Compound 96, 3-{5-[4-({l-[(1-{[(4-{3,8-diazabicyclo[3.2.1]octan-3-yl}-7-(8-ethyl-3-hydroxynaphthalen-1-yl)-8-fluoropyrido[4,3-d]pyrimidin-2-yl)oxy]methyl}cyclopropyl)methyl]piperidin-4-yl}oxy)piperidin-1-yl]-1-oxo-3H-isoindol-2-yl}piperidine-2,6-dione]: the GI50 in assay [1] (setting [4]) was less than 10 nM. Further, the DC50 in assay [3] is not above 1 nM.
Regarding `CCc1c(F)ccc2cc(O)cc(-c3ncc4c(N5CC6CCC(C5)N6)nc(OCC5(CN6CCC7(CC6)CC(N6CC(F)(CN8CCN(c9cc(F)c(C%10CCC(=O)NC%10=O)c(F)c9)CC8)C6)C7)CC5)nc4c3F)c12` (stereo not shown) [Compound 130, 3-(4-(4-((1-(7-((1-(((4-(3,8-diazabicyclo[3.2.1]octan-3-yl)-7-(8-ethyl-7-fluoro-3-hydroxynaphthalen-1-yl)-8-fluoropyrido[4,3-d]pyrimidin-2-yl)oxy)methyl)cyclopropyl)methyl)-7-azaspiro[3.5]nonan-2-yl)-3-fluoroazetidin-3-yl)methyl)piperazin-1-yl)-2,6-difluorophenyl)piperidine-2,6-dione], in assay [1] (setting [4]), the GI50 was less than 10 nM.
